Experimental data as given in publication PMC10222548, “Semisynthesis, Biological Evaluation and Molecular Docking Studies of Barbatic Acid Derivatives as Novel Diuretic Candidates” (Molecules, 2023).
Where two headings read alike, the source gives them in different places.

Columns and labels:
[1] = tested on: Cl^− transport, MDCK cells; test: In vitro diuretic activity: Cl^− transport inhibition, Transwell chamber seeded with MDCK cells; format: cell-based, canine; conditions: Canis lupus familiaris, read-out: Transport Inhibition Rate (%) Cl^−
Source text: (§1) The traditional methods for screening diuretic drugs are mostly in vivo experiments with mice, which have a long experimental cycle and are not suitable for screening massive compounds. As we know, the generation and excretion of urine involve two processes: glomerular filtration and tubular reabsorption. Reabsorption refers to the process in which the renal tubular epithelial cells transport water and certain solutes from the tubular fluid (urine) partially or entirely back into the bloodstream. Then, 99% of the water in the original urine filtered by the glomerulus is reabsorbed, and the transport of Na^+ and Cl^− plays an important role in this process. Thiazide and furosemide diuretics exert their diuretic effects by inhibiting the transport of Na^+ and Cl^−, which affects the tubular reabsorption of the original urine. Based on this principle, we established a new type of cell screening model for diuretic active drugs. Madin–Darby canine kidney (MDCK) cells were inoculated into a Transwell chamber to simulate the renal tubules. This cell model could transport and absorb external NaCl, simulating the reabsorption phenomenon. […] The effectiveness of this model was confirmed by the validation of hydrochlorothiazide, which is a commercially available diuretic drug and could inhibit the transport of Na^+ and Cl^− in renal tubules.
(§2) Generally, the transport of Na^+ and Cl^− plays an important role in glomerular filtration and tubular reabsorption. […] For example, inhibition rates of transport of 6a and 6c were over 30%, and had better inhibitory ability than barbatic acid. […] When ethyl, propyl, and benzyl were substituted on R^1, the introduction of any group could not enhance the inhibitory activity of barbatic acid, such as 6h–u and 6j′–6p′.
(§3) Log-phase MDCK cells were seeded in the upper chambers of Transwell plates (4 × 10^4 cells/well), and 800 µL of complete culture medium was added to the lower chambers. After 24 h of incubation at 37 °C, the electrical resistance of the upper chamber cells was measured one by one (R = (Rcell − Rblank) × 0.04π). When the electrical resistance of the upper chamber cells reached ≥300 Ω cm^2, the upper chamber medium was removed and replaced with the drug solution. The blank group (given normal saline), the experimental group (1, 6a–6p′, 100 μmol/L), and the hydrochlorothiazide group (100 μmol/L) were set, and each well was treated with 100 µL of the corresponding solution. The cells were then further incubated for 24 h. After that, the upper and lower chamber fluids were removed, and 200 µL of NaCl solution (15 mg/mL) was added to the upper chamber, while 800 µL of DMEM was added to the lower chamber for continued incubation. At 0.5, 1, 2, and 3 h, 50 µL of the lower chamber fluid was taken and the OD values were measured using Na^+ and Cl^− detection kits. The transport inhibition rate (%) was calculated as follows: transport inhibition rate (%) = (ODblank − ODexperimental)/ODblank × 100%.

[2] = tested on: C2O4^2− transport, MDCK cells; test: In vitro litholytic activity: C2O4^2− transport inhibition, Transwell chamber with MDCK cells; format: cell-based, canine; conditions: Canis lupus familiaris; 100 μmol/L, MDCK cells in Transwell; mean ± SD of three replicates; read-out: Transport Inhibition Rate (%) C2O4^2−
Description: (§4) On the other hand, all compounds had little inhibitory effect on Ca^2+ transport. The structure–activity relationships (SARs) were also observed. […] On the other hand, the introduction of the benzyl group to the R^1 or R^2 of barbatic acid could not lead to more promising compounds, such as 6a, 6n, 6u, 6b′, and 6i′–p′.
(§5) Logarithmic-phase DMCK cells were inoculated in the upper chamber of a Transwell plate (4 × 10^4 cells/well). Then, 800 µL of complete culture medium was added to the lower chamber, and the cells were incubated for 24 h until they adhered to the wall. The resistance value of the upper chamber cells was measured one by one at 37 °C (R = (Rcell − Rblank) × 0.04π). When the resistance value of the upper chamber cells was ≥300 Ω cm^2, the upper chamber liquid was discarded for drug administration. A control group (given physiological saline) and an experimental group (1, 6a–6p′, 100 μmol/L) were set up, and 100 µL of each drug was administered per well, followed by continued incubation for 24 h. Then, the upper and lower chamber liquids were discarded, and 200 µL of CaC2O4 (30 mmol/L) solution was added to the upper chamber, and 800 µL of PBS solution was added to the lower chamber for continued incubation. At 0.5, 1, 2, and 3 h, 50 µL of the lower chamber liquid was taken and then tested using the Ca^2+ and C2O4^2− detection kits and the following detection methods. The transport inhibition rate (%) = (ODblank − ODexperimental)/ODblank × 100%.

[3] = tested on: Ca^2+ transport, MDCK cells; test: In vitro litholytic activity: Ca^2+ transport inhibition, Transwell chamber with MDCK cells; format: cell-based, canine; conditions: Canis lupus familiaris, 100 μmol/L, mean ± SD of three replicates, read-out: Transport Inhibition Rate (%) Ca^2+
Description: as §4, §5

[4] = tested on: Na^+ transport, MDCK cells; test: In vitro diuretic activity: Na^+ transport inhibition, Transwell chamber seeded with MDCK cells; format: cell-based, canine; conditions: for inhibition at 100 µM: Canis lupus familiaris, MDCK
Source text: as §1, §2, §3

MDCK cells = test: MTT cytotoxicity assay on MDCK cells; format: cell-based, canine; conditions: Canis lupus familiaris, 100 μmol/L, 24 h, mean ± SD of three replicates, read-out: Growth Inhibition Rate (%)
Description: First, we used the MTT method to perform cytotoxicity of barbatic acid derivatives (1, 6a–6p′) on MDCK cells at the concentration of 100 μmol/L, and the results are shown in Table 1.
The MTT assay was used to evaluate the cytotoxicity of the target compounds on DMCK cells. Logarithmic-growth-phase DMCK cells were seeded in a 96-well plate (10^4 cells/well) and incubated in a cell culture incubator for 24 h. The culture medium was then removed and replaced with a drug-containing medium for the treatment groups (1, 6a–6p′, 100 μmol/L), normal saline for the control group, or hydrochlorothiazide (100 μmol/L) for the positive control group. Each well was treated with 100 µL of the respective solution and incubated for an additional 24 h. The culture medium was then removed and replaced with a DMEM solution containing 20 µL of MTT (5 mg/mL). After incubating for 4 h, the liquid in each well was removed and replaced with 150 µL of DMSO, which was shaken for 10 min to ensure thorough mixing. The absorbance at 490 nm was measured to determine the optical density (OD) of each well. Cell growth inhibition rate (%) = (ODBlank − ODExperimental)/ODBlank × 100%.

[5] = 100 μmol/L, MDCK cells in Transwell, mean ± SD of three replicates, negative = promotion
[6] = 100 μmol/L, MDCK cells in Transwell, mean ± SD of three replicates, negative = promotion, read-out: Transport Inhibition Rate (%) Na^+

Work on Cc1cc(OC(=O)c2c(C)cc(OC(C)C)c(C)c2O)c(C)c(O)c1C(=O)OCC#N [6a′, 4-((cyanomethoxy)carbonyl)-3-hydroxy-2,5-dimethylphenyl 2-hydroxy-4-isopropoxy-3,6-dimethylbenzoate] yielded an inhibition at 100 µM [1, 5] of -10 ± 1.95%, an inhibition at 100 µM [2] of -13.2 ± 1.67% and an inhibition at 100 µM [3] of -0.91 ± 0.11%. The inhibition at 100 µM [4, 6] was -15.8 ± 4.85%, the inhibition at 100 µM (MDCK cells) was < 0% and the melting point was 155 to 158 °C.
Compound Cc1cc(OC(=O)c2c(C)cc(OC(C)C)c(C)c2O)c(C)c(O)c1C(=O)OCc1ccccc1 [6b′, benzyl 2-hydroxy-4-(2-hydroxy-4-isopropoxy-3,6-dimethylbenzoyloxy)-3,6-dimethylbenzoate] has an inhibition at 100 µM [1, 5] of 15.9 ± 0.25%, an inhibition at 100 µM [2] of -20.6 ± 1.31% and an inhibition at 100 µM [3] of 0.73 ± 0.08%. The “Transport Inhibition Rate (%) Na^+” value [4, 5] was 33.08 ± 0.35%, the inhibition at 100 µM [4, 6] was > 30% and the “Na^+ transport inhibition rate at 1, 2, and 3 h” value ([4]; evaluated at 1, 2, and 3 h (Figure 3)) was “above 20%”. The inhibition at 100 µM (MDCK cells) was < 0% and the melting point was 83 to 86 °C.
In the case of C=CCOc1cc(C)c(C(=O)Oc2cc(C)c(C(=O)OCC)c(O)c2C)c(O)c1C [6d′, 4-(ethoxycarbonyl)-3-hydroxy-2,5-dimethylphenyl 4-(allyloxy)-2-hydroxy-3,6-dimethylbenzoate], the inhibition at 100 µM [1, 5] is reported as -5.06 ± 0.35%, the inhibition at 100 µM [2] is reported as 0.52 ± 1.86% and the inhibition at 100 µM [3] is reported as 2.04 ± 0.03%. The inhibition at 100 µM [4, 6] was -7.24 ± 0.75%, the inhibition at 100 µM (MDCK cells) was 1.42% and the melting point was 116 to 120 °C.
C=CCOc1cc(C)c(C(=O)Oc2cc(C)c(C(=O)OCCC)c(O)c2C)c(O)c1C [6e′, 3-hydroxy-2,5-dimethyl-4-(propoxycarbonyl)phenyl 4-(allyloxy)-2-hydroxy-3,6-dimethylbenzoate] showed an inhibition at 100 µM [1, 5] of -12.9 ± 0.85%, an inhibition at 100 µM [2] of 5.77 ± 3.15% and an inhibition at 100 µM [3] of 2.04 ± 0.08%. The inhibition at 100 µM [4, 6] was 2.79 ± 0.25% and the inhibition at 100 µM (MDCK cells) was < 0%.
In the case of C=CCOC(=O)c1c(C)cc(OC(=O)c2c(C)cc(OCC=C)c(C)c2O)c(C)c1O [6g′, allyl 4-(4-(allyloxy)-2-hydroxy-3,6-dimethylbenzoyloxy)-2-hydroxy-3,6-dimethylbenzoate], the inhibition at 100 µM [1, 5] is reported as 18.6 ± 2.2%, the inhibition at 100 µM [2] is reported as -11.3 ± 1.9% and the inhibition at 100 µM [3] is reported as 2.79 ± 0.13%. For the same compound, the inhibition at 100 µM [4, 6] was 5.29 ± 0.15%, the inhibition at 100 µM (MDCK cells) was < 0% and the melting point was 110 to 113 °C.
With C=CCOc1cc(C)c(C(=O)Oc2cc(C)c(C(=O)OCC#N)c(O)c2C)c(O)c1C [6h′, allyl 4-((cyanomethoxy)carbonyl)-3-hydroxy-2,5-dimethylphenyl 4-(allyloxy)-2-hydroxy-3,6-dimethylbenzoate] the inhibition at 100 µM [1, 5] was 0.62 ± 0.7%, the inhibition at 100 µM [2] was 10.7 ± 1.41% and the inhibition at 100 µM [3] was -0.38 ± 0.16%. For the same compound, the inhibition at 100 µM [4, 6] was -14.4 ± 2.4%, the inhibition at 100 µM (MDCK cells) was < 0% and the melting point was 124 to 127 °C.
C=CCOc1cc(C)c(C(=O)Oc2cc(C)c(C(=O)OCc3ccccc3)c(O)c2C)c(O)c1C [6i′, benzyl 4-(4-(allyloxy)-2-hydroxy-3,6-dimethylbenzoyloxy)-2-hydroxy-3,6-dimethylbenzoate] gave an inhibition at 100 µM [1, 5] of -8.43 ± 2.85%, an inhibition at 100 µM [2] of 11.4 ± 1.13% and an inhibition at 100 µM [3] of 2.68 ± 0.11%. For the same compound, the inhibition at 100 µM [4, 6] was -12.9 ± 1.6%, the inhibition at 100 µM (MDCK cells) was 2.43 ± 0.3% and the melting point was 75 to 78 °C.
Compound COC(=O)c1c(C)cc(OC(=O)c2c(C)cc(OCc3ccccc3)c(C)c2O)c(C)c1O [6j′, 3-hydroxy-4-(methoxycarbonyl)-2,5-dimethylphenyl 4-(benzyloxy)-2-hydroxy-3,6-dimethylbenzoate] has an inhibition at 100 µM [1, 5] of 0.62 ± 0.8%, an inhibition at 100 µM [2] of -1.79 ± 3.79% and an inhibition at 100 µM [3] of 0%. For the same compound, the inhibition at 100 µM [4, 6] was -5.13 ± 0.25%, the inhibition at 100 µM (MDCK cells) was < 0% and the melting point was 131 to 134 °C.
CCOC(=O)c1c(C)cc(OC(=O)c2c(C)cc(OCc3ccccc3)c(C)c2O)c(C)c1O [6k′, 4-(ethoxycarbonyl)-3-hydroxy-2,5-dimethylphenyl 4-(benzyloxy)-2-hydroxy-3,6-dimethylbenzoate] gave an inhibition at 100 µM [1, 5] of -19.6 ± 2.4%, an inhibition at 100 µM [2] of 10.3 ± 2.11% and an inhibition at 100 µM [3] of 1.34 ± 0.1%. For the same compound, the inhibition at 100 µM [4, 6] was 14.1 ± 3.2%, the inhibition at 100 µM (MDCK cells) was 1.45 ± 0.1% and the melting point was 123 to 126 °C.
CCCOC(=O)c1c(C)cc(OC(=O)c2c(C)cc(OCc3ccccc3)c(C)c2O)c(C)c1O [6l′, 3-hydroxy-2,5-dimethyl-4-(propoxycarbonyl)phenyl 4-(benzyloxy)-2-hydroxy-3,6-dimethylbenzoate] showed an inhibition at 100 µM [1, 5] of -2.92 ± 2.15%, an inhibition at 100 µM [2] of 16.5 ± 4.38% and an inhibition at 100 µM [3] of -2.68 ± 0.39%. The inhibition at 100 µM [4, 6] was -18.2 ± 0.2%, the inhibition at 100 µM (MDCK cells) was 2.11 ± 0.9% and the melting point was 115 to 118 °C.
For Cc1cc(OCc2ccccc2)c(C)c(O)c1C(=O)Oc1cc(C)c(C(=O)OC(C)C)c(O)c1C [6m′, 3-hydroxy-4-(isopropoxycarbonyl)-2,5-dimethylphenyl 4-(benzyloxy)-2-hydroxy-3,6-dimethylbenzoate], the inhibition at 100 µM [1, 5] was -4.93 ± 2.95%, the inhibition at 100 µM [2] was 2.28 ± 1.34% and the inhibition at 100 µM [3] was -2.06 ± 0.09%. The inhibition at 100 µM [4, 6] was -0.36 ± 0.4%, the inhibition at 100 µM (MDCK cells) was < 0% and the melting point was 135 to 138 °C.
C=CCOC(=O)c1c(C)cc(OC(=O)c2c(C)cc(OCc3ccccc3)c(C)c2O)c(C)c1O [6n′, allyl 4-(4-(benzyloxy)-2-hydroxy-3,6-dimethylbenzoyloxy)-2-hydroxy-3,6-dimethylbenzoate] showed an inhibition at 100 µM [1, 5] of -13 ± 0.15%, an inhibition at 100 µM [2] of -29.4 ± 3.89% and an inhibition at 100 µM [3] of 0.1 ± 0.3%. For the same compound, the inhibition at 100 µM [4, 6] was -1.85 ± 0.8%, the inhibition at 100 µM (MDCK cells) was < 0% and the melting point was 127 to 130 °C.
In the case of NS(=O)(=O)c1cc2c(cc1Cl)NCNS2(=O)=O [Hyd, hydrochlorothiazide, reference compound], the inhibition at 100 µM ([1]; MDCK) is reported as 19.7 ± 1%, the inhibition at 100 µM ([4]; read-out: Transport Inhibition Rate (%) Na^+, 100 μmol/L, MDCK cells in Transwell, mean ± SD of three replicates, negative = promotion) is reported as 25.1 ± 0.85% and the inhibition at 100 µM (MDCK cells) is reported as < 0%.
